{
  "source": "paper PMC8070256",
  "about": "“Feasibility of Developing Radiotracers for MDM2: Synthesis and Preliminary Evaluation of an ^18F-Labeled Analogue of the MDM2 Inhibitor SP-141” (Pharmaceuticals, 2021)",
  "key": {"[1]": {"test_system": "athymic mice bearing HepG2 xenografts", "assay": "Tissue distribution studies in HepG2 xenografts", "type": "in vivo", "description": "Based on the promising results obtained with [^18F]1 in vitro, tissue distribution studies were conducted in athymic mice bearing subcutaneous HepG2 tumor xenografts. HepG2 tumor model was selected because of the higher uptake of [^18F]1 in HepG2 cells and a substantial increase in the uptake in response to co-incubation with 100 µM SP-141, compared to that in MCF-7 cells (Figure 5). Groups of five mice were injected intravenously with [^18F]1 and euthanized at 0.5, 1, or 2 h post injection to determine the tissue distribution of [^18F]1. A separate group of animals (n = 4) were injected intraperitoneally with SP-141 (1.2 mg per mouse; ~140 µM) 30 min before [^18F]1 injection to assess the specificity of tracer uptake in tumors. […] At 30 min post injection, radioactivity levels in most organs were ≥3 %ID/g and decreased to ~2 %ID/g by 2 h.\nAll animal experiments were conducted in accordance with the regulations of the Duke University Institutional Animal Care and Use Committee (IACUC) under an IACUC-approved protocol. Tissue distribution studies were conducted in mice bearing subcutaneous HepG2 tumor xenografts. To generate the tumor model, male athymic mice (Jackson Labs, Farmington, CT, USA) were injected with 5 × 10^6 HepG2 cells suspended in DMEM and Matrigel (Corning®, Corning, NY, USA, 1:1, 100 µL) in the flank; tissue distribution studies were initiated when the tumor volume reached 200 mm^3. For these studies, groups of five mice were injected with [^18F]1 by the intravenous route and euthanized at 0.5, 1, or 2 h post injection (n = 5 per time point) to assess the tissue distribution of [^18F]1 as described previously. A separate group of animals (n = 4) was injected with SP-141 (1.2 mg per mouse; ~140 µM) by intraperitoneal injection 30 min before [^18F]1 injection to assess the specificity of tracer uptake. The concentration of ^18F activity was calculated as the percentage injected dose per gram tissue (%ID/g)."}, "MCF-7 cells": {"test_system": "MCF-7 cells", "assay": "Cell uptake of [^18F]1 in MCF-7 cells after 21 h pretreatment", "type": "cell-based, human", "details": "1 h uptake", "description": "The ability of [^18F]1 to bind to MDM2 expressing human tumor cells was assessed using two wild-type p53 cell lines, MCF-7 breast adenocarcinoma, and HepG2 hepatocellular carcinoma. These cell lines have significant MDM2 expression levels and have been utilized previously for assessing potential MDM2 inhibitors, including SP-141 [12, 24, 25]. […] Thus, to examine the uptake and specificity of [^18F]1 by MDM2 expressing tumor cell lines, MCF-7 and HepG2 cells were treated with 0, 1, 5, or 10 µM SP-141 for 21 h, and then assessed for [^18F]1 uptake for 1 h.\nCell uptake studies of [^18F]1 were conducted using MCF-7 and HepG2 cell lines. Briefly, cells plated in 24-well plates (200,000/well) were treated with varying concentrations of SP-141 (1, 5, or 10 µM) or vehicle for 21 h and incubated with a fresh medium containing [^18F]1 (~18.5 kBq in 0.5 mL medium) for 1 h. Next, the incubation medium was removed, cells were rinsed with cold PBS (3 × 0.5 mL) and lysed using Cell Culture Lysis Reagent (0.25 mL, Promega Corporation, Madison, WI, USA) followed by a rinse with PBS (0.125 mL/well). For each well, the supernatant, PBS washes, and the cell lysate were measured for radioactivity in an automated gamma counter (Wallac Wizard™, Perkin Elmer, Waltham, MA, USA). Subsequently, cell lysates were analyzed for protein concentration using the Bradford assay (Bio-Rad, Hercules, CA, USA). Cell uptake for each well was normalized to its protein content and expressed as % uptake/mg protein. Results are presented as mean ± SD for three wells."}, "[2]": {"details": "1 h Block: SP-141 (1.2 mg) i.p. 30 min before i.v. [^18F]1"}},
  "note": "Where “and” joins values, the source holds several entries; their conditions need not be identical. Equal values may be shown once.",
  "data": [
    {"smiles": "[18F]CCOc1ccc2[nH]c3c(-c4cccc5ccccc45)nccc3c2c1", "note": "[[^18F]1]", "values": [
      {"measurement": "Biodistribution, Blood", "setting": "[1]; 30 min post i.v. injection", "result": "4.2 ± 0.6", "unit": "%ID/g"},
      {"measurement": "Biodistribution, Bone", "setting": "[1]; 30 min post i.v. injection", "result": "3.1 ± 0.6", "unit": "%ID/g"},
      {"measurement": "Biodistribution, Brain", "setting": "[1]; 30 min post i.v. injection", "result": "2.9 ± 0.8", "unit": "%ID/g"},
      {"measurement": "Biodistribution, Heart", "setting": "[1]; 30 min post i.v. injection", "result": "4.1 ± 0.7", "unit": "%ID/g"},
      {"measurement": "Biodistribution, Kidneys", "setting": "[1]; 30 min post i.v. injection", "result": "3.7 ± 0.8", "unit": "%ID/g"},
      {"measurement": "Biodistribution, Large Intestine", "setting": "[1]; 30 min post i.v. injection", "result": "6.1 ± 1.7", "unit": "%ID/g"},
      {"measurement": "Biodistribution, Liver", "setting": "[1]; 30 min post i.v. injection", "result": "3.2 ± 0.5", "unit": "%ID/g"},
      {"measurement": "Biodistribution, Lungs", "setting": "[1]; 30 min post i.v. injection", "result": "3.9 ± 0.6", "unit": "%ID/g"},
      {"measurement": "Biodistribution, Muscle", "setting": "[1]; 30 min post i.v. injection", "result": "3.5 ± 0.8", "unit": "%ID/g"},
      {"measurement": "Biodistribution, Skin", "setting": "[1]; 30 min post i.v. injection", "result": "3.7 ± 0.7", "unit": "%ID/g"},
      {"measurement": "Biodistribution, Small Intestine", "setting": "[1]; 30 min post i.v. injection", "result": "3.9 ± 1.0", "unit": "%ID/g"},
      {"measurement": "Biodistribution, Spleen", "setting": "[1]; 30 min post i.v. injection", "result": "3.3 ± 0.4", "unit": "%ID/g"},
      {"measurement": "Biodistribution, Stomach", "setting": "[1]; 30 min post i.v. injection", "result": "5.1 ± 2.0", "unit": "%ID/g"},
      {"measurement": "Biodistribution, Tumor (HepG2 xenograft)", "setting": "[1]; 30 min post i.v. injection", "result": "3.3 ± 0.3", "unit": "%ID/g"},
      {"measurement": "Biodistribution, Blood", "setting": "[1]; [2]", "result": "2.7 ± 0.9", "unit": "%ID/g"},
      {"measurement": "Biodistribution, Bone", "setting": "[1]; [2]", "result": "1.9 ± 0.4", "unit": "%ID/g"},
      {"measurement": "Biodistribution, Brain", "setting": "[1]; [2]", "result": "3.3 ± 0.5", "unit": "%ID/g"},
      {"measurement": "Biodistribution, Heart", "setting": "[1]; [2]", "result": "3.7 ± 0.3", "unit": "%ID/g"},
      {"measurement": "Biodistribution, Kidneys", "setting": "[1]; [2]", "result": "3.8 ± 0.4", "unit": "%ID/g"},
      {"measurement": "Biodistribution, Large Intestine", "setting": "[1]; [2]", "result": "3.4 ± 1.4", "unit": "%ID/g"},
      {"measurement": "Biodistribution, Liver", "setting": "[1]; [2]", "result": "3.3 ± 0.6", "unit": "%ID/g"},
      {"measurement": "Biodistribution, Lungs", "setting": "[1]; [2]", "result": "3.5 ± 0.8", "unit": "%ID/g"},
      {"measurement": "Biodistribution, Muscle", "setting": "[1]; [2]", "result": "3.3 ± 0.4", "unit": "%ID/g"},
      {"measurement": "Biodistribution, Skin", "setting": "[1]; [2]", "result": "3.0 ± 0.7", "unit": "%ID/g"},
      {"measurement": "Biodistribution, Small Intestine", "setting": "[1]; [2]", "result": "4.1 ± 0.3", "unit": "%ID/g"},
      {"measurement": "Biodistribution, Spleen", "setting": "[1]; [2]", "result": "3.0 ± 0.6", "unit": "%ID/g"},
      {"measurement": "Biodistribution, Stomach", "setting": "[1]; [2]", "result": "1.6 ± 1.2", "unit": "%ID/g"},
      {"measurement": "Biodistribution, Tumor (HepG2 xenograft)", "setting": "[1]; [2]", "result": "3.2 ± 0.7", "unit": "%ID/g"},
      {"measurement": "Biodistribution, Blood", "setting": "[1]; 1 h post i.v. injection", "result": "4.1 ± 0.6", "unit": "%ID/g"},
      {"measurement": "Biodistribution, Bone", "setting": "[1]; 1 h post i.v. injection", "result": "3.6 ± 1.0", "unit": "%ID/g"},
      {"measurement": "Biodistribution, Brain", "setting": "[1]; 1 h post i.v. injection", "result": "2.6 ± 0.8", "unit": "%ID/g"},
      {"measurement": "Biodistribution, Heart", "setting": "[1]; 1 h post i.v. injection", "result": "4.0 ± 0.7", "unit": "%ID/g"},
      {"measurement": "Biodistribution, Kidneys", "setting": "[1]; 1 h post i.v. injection", "result": "3.3 ± 0.6", "unit": "%ID/g"},
      {"measurement": "Biodistribution, Large Intestine", "setting": "[1]; 1 h post i.v. injection", "result": "7.7 ± 1.8", "unit": "%ID/g"},
      {"measurement": "Biodistribution, Liver", "setting": "[1]; 1 h post i.v. injection", "result": "2.8 ± 0.4", "unit": "%ID/g"},
      {"measurement": "Biodistribution, Lungs", "setting": "[1]; 1 h post i.v. injection", "result": "3.8 ± 0.7", "unit": "%ID/g"},
      {"measurement": "Biodistribution, Muscle", "setting": "[1]; 1 h post i.v. injection", "result": "2.6 ± 0.6", "unit": "%ID/g"},
      {"measurement": "Biodistribution, Skin", "setting": "[1]; 1 h post i.v. injection", "result": "3.4 ± 0.5", "unit": "%ID/g"},
      {"measurement": "Biodistribution, Small Intestine", "setting": "[1]; 1 h post i.v. injection", "result": "4.0 ± 0.7", "unit": "%ID/g"},
      {"measurement": "Biodistribution, Spleen", "setting": "[1]; 1 h post i.v. injection", "result": "2.7 ± 0.7", "unit": "%ID/g"},
      {"measurement": "Biodistribution, Stomach", "setting": "[1]; 1 h post i.v. injection", "result": "2.7 ± 0.8", "unit": "%ID/g"},
      {"measurement": "Biodistribution, Tumor (HepG2 xenograft)", "setting": "[1]; 1 h post i.v. injection", "result": "3.0 ± 0.7", "unit": "%ID/g"},
      {"measurement": "Biodistribution, Blood", "setting": "[1]; 2 h post i.v. injection", "result": "3.3 ± 0.8", "unit": "%ID/g"},
      {"measurement": "Biodistribution, Bone", "setting": "[1]; 2 h post i.v. injection", "result": "5.4 ± 0.8", "unit": "%ID/g"},
      {"measurement": "Biodistribution, Brain", "setting": "[1]; 2 h post i.v. injection", "result": "2.0 ± 0.7", "unit": "%ID/g"},
      {"measurement": "Biodistribution, Heart", "setting": "[1]; 2 h post i.v. injection", "result": "3.3 ± 0.9", "unit": "%ID/g"},
      {"measurement": "Biodistribution, Kidneys", "setting": "[1]; 2 h post i.v. injection", "result": "2.4 ± 0.6", "unit": "%ID/g"},
      {"measurement": "Biodistribution, Large Intestine", "setting": "[1]; 2 h post i.v. injection", "result": "7.1 ± 2.9", "unit": "%ID/g"},
      {"measurement": "Biodistribution, Liver", "setting": "[1]; 2 h post i.v. injection", "result": "2.4 ± 0.5", "unit": "%ID/g"},
      {"measurement": "Biodistribution, Lungs", "setting": "[1]; 2 h post i.v. injection", "result": "2.1 ± 0.8", "unit": "%ID/g"},
      {"measurement": "Biodistribution, Muscle", "setting": "[1]; 2 h post i.v. injection", "result": "2.6 ± 0.7", "unit": "%ID/g"},
      {"measurement": "Biodistribution, Skin", "setting": "[1]; 2 h post i.v. injection", "result": "3.1 ± 0.4", "unit": "%ID/g"},
      {"measurement": "Biodistribution, Small Intestine", "setting": "[1]; 2 h post i.v. injection", "result": "3.0 ± 0.5", "unit": "%ID/g"},
      {"measurement": "Biodistribution, Spleen", "setting": "[1]; 2 h post i.v. injection", "result": "2.1 ± 0.4", "unit": "%ID/g"},
      {"measurement": "Biodistribution, Stomach", "setting": "[1]; 2 h post i.v. injection", "result": "2.1 ± 0.7", "unit": "%ID/g"},
      {"measurement": "Biodistribution, Tumor (HepG2 xenograft)", "setting": "[1]; 2 h post i.v. injection", "result": "3.0 ± 0.8", "unit": "%ID/g"},
      {"measurement": "Radioactivity levels in most organs / normal tissues", "setting": "[1]; 2 h post injection", "result": "~ 2 %ID/g and 2–3 %ID/g"},
      {"measurement": "Tumor-to-muscle ratio", "setting": "[1]; 2 h post injection", "result": "1.14 ± 0.18"},
      {"measurement": "Tumor-to-normal tissue (tumor-to-background) ratios", "setting": "[1]; 2 h post injection", "result": "< 2"},
      {"measurement": "Tumor uptake and retention in HepG2 xenografts", "setting": "[1]; over the 2-h observation period", "result": "~ 3 %ID/g"},
      {"measurement": "[^18F]1 uptake", "setting": "MCF-7 cells; MCF-7 cells treated with SP-141 (1, 5 or 10 µM) for 21 h", "result": "≤ 18.5 ± 0.0", "unit": "%/mg protein"},
      {"measurement": "[^18F]1 uptake", "setting": "MCF-7 cells; vehicle-treated control MCF-7 cells", "result": "71.4 %/mg protein and 71.4 ± 0.0 %/mg protein"}
    ]}
  ]
}
